We go through one compound from ChEMBL document CHEMBL1139100, “Discovery of anticonvulsant activity of abietic acid through application of linear discriminant analysis” (Bioorg Med Chem Lett, 2007).

Data set [1] relates to Mus musculus. The experiment in a line: Anticonvulsant activity in Swiss mouse at 100 mg/kg, po after 0.5 hrs by MES test. The class given is functional, organism-based. Details: dose 100 mg/kg.
Data set [2] deals with Mus musculus. The experiment in a line: Neurotoxicity against Swiss mouse at 30 mg/kg, po after 4 hrs by rotarod test. The class given is toxicity, organism-based. Details: dose 30 mg/kg, route oral. To be noted: in vivo.
Data set [3] concerns Mus musculus. The data set can be described thus: Neurotoxicity against Swiss mouse at 30 mg/kg, po after 0.5 hrs by rotarod test. The conditions noted are these: in vivo. The data set is classed as toxicity, organism-based. The arrangement: dose 30 mg/kg, route oral.
The subject of data set [4] is Mus musculus. The experiment in a line: Anticonvulsant activity in Swiss mouse at 100 mg/kg, ip after 4 hrs by MES test. The data set is classed as functional, organism-based. The arrangement: dose 100 mg/kg.
In data set [5] the test system is Mus musculus. The data set can be described thus: Anticonvulsant activity in Swiss mouse at 30 mg/kg, ip after 4 hrs by PTZ test. The arrangement: dose 30 mg/kg. The class given is functional, organism-based.
The test system of data set [6] is Mus musculus. The experiment in a line: Neurotoxicity against Swiss mouse at 100 mg/kg, po after 4 hrs by rotarod test. The arrangement: dose 100 mg/kg, route oral. To be noted: in vivo. The data set is classed as toxicity, organism-based.
For data set [7], the system named is Mus musculus. The data set can be described thus: Anticonvulsant activity in Swiss mouse at 100 mg/kg, ip after 0.5 hrs by MES test. The class given is functional, organism-based. Details: dose 100 mg/kg.
Data set [8] concerns Mus musculus. The experiment in a line: Anticonvulsant activity in Swiss mouse at 30 mg/kg, po after 0.5 hrs by PTZ test. The class given is functional, organism-based. Details: dose 30 mg/kg.
Data set [9] concerns Mus musculus. The data set can be described thus: Anticonvulsant activity in Swiss mouse at 30 mg/kg, ip after 0.5 hrs by MES test. Details: dose 30 mg/kg. The data set is classed as functional, organism-based.
Data set [10] relates to Mus musculus. The experiment in a line: Anticonvulsant activity in Swiss mouse at 30 mg/kg, po after 4 hrs by MES test. The arrangement: dose 30 mg/kg. The data set is classed as functional, organism-based.
Data set [11] concerns Mus musculus. The experiment in a line: Neurotoxicity against Swiss mouse at 100 mg/kg, po after 0.5 hrs by rotarod test. The data set is classed as toxicity, organism-based. The arrangement: dose 100 mg/kg, route oral. To be noted: in vivo.
Data set [12] relates to Mus musculus. The data set can be described thus: Anticonvulsant activity in Swiss mouse at 100 mg/kg, ip after 4 hrs by PTZ test. The data set is classed as functional, organism-based. The arrangement: dose 100 mg/kg.
Data set [13] has as its system Mus musculus. The experiment in a line: Neurotoxicity against Swiss mouse at 100 mg/kg, ip after 0.5 hrs by rotarod test. The class given is toxicity, organism-based. Details: dose 100 mg/kg, route intraperitoneal. The conditions noted are these: in vivo.
Data set [14] has as its system Mus musculus. The experiment in a line: Anticonvulsant activity in Swiss mouse at 100 mg/kg, po after 0.5 hrs by PTZ test. The data set is classed as functional, organism-based. The arrangement: dose 100 mg/kg.
The subject of data set [15] is Mus musculus. The data set can be described thus: Anticonvulsant activity in Swiss mouse at 30 mg/kg, ip after 4 hrs by MES test. The class given is functional, organism-based. The arrangement: dose 30 mg/kg.
The test system of data set [16] is Mus musculus. The data set can be described thus: Anticonvulsant activity in Swiss mouse at 30 mg/kg, po after 0.5 hrs by MES test. The class given is functional, organism-based. Details: dose 30 mg/kg.
Data set [17] relates to Mus musculus. The experiment in a line: Anticonvulsant activity in Swiss mouse at 100 mg/kg, po after 4 hrs by MES test. The class given is functional, organism-based. Details: dose 100 mg/kg.
The subject of data set [18] is Mus musculus. The data set can be described thus: Neurotoxicity against Swiss mouse at 30 mg/kg, ip after 0.5 hrs by rotarod test. To be noted: in vivo. The arrangement: dose 30 mg/kg, route intraperitoneal. The data set is classed as toxicity, organism-based.
Data set [19] relates to Mus musculus. The experiment in a line: Anticonvulsant activity in Swiss mouse at 100 mg/kg, ip after 0.5 hrs by PTZ test. The class given is functional, organism-based. Details: dose 100 mg/kg.
The subject of data set [20] is Mus musculus. The experiment in a line: Anticonvulsant activity in Swiss mouse at 100 mg/kg, po after 4 hrs by PTZ test. The data set is classed as functional, organism-based. Details: dose 100 mg/kg.
Data set [21] deals with Mus musculus. The data set can be described thus: Anticonvulsant activity in Swiss mouse at 30 mg/kg, po after 4 hrs by PTZ test. The class given is functional, organism-based. The arrangement: dose 30 mg/kg.
Data set [22] concerns Mus musculus. The experiment in a line: Neurotoxicity against Swiss mouse at 100 mg/kg, ip after 4 hrs by rotarod test. The class given is toxicity, organism-based. The arrangement: dose 100 mg/kg, route intraperitoneal. The conditions noted are these: in vivo.
Data set [23] has as its system Mus musculus. The experiment in a line: Neurotoxicity against Swiss mouse at 30 mg/kg, ip after 4 hrs by rotarod test. The data set is classed as toxicity, organism-based. The arrangement: dose 30 mg/kg, route intraperitoneal. The conditions noted are these: in vivo.
For data set [24], the system named is Mus musculus. The data set can be described thus: Anticonvulsant activity in Swiss mouse at 30 mg/kg, ip after 0.5 hrs by PTZ test. The arrangement: dose 30 mg/kg. The data set is classed as functional, organism-based.

The structures appear in SMILES notation. Active and inactive are the calls of the source. The calls are words filed in the database; no cut-off is given here.

On to `CC(C)C1=CC2=CC[C@@H]3[C@](C)(CCC[C@@]3(C)C(=O)O)[C@H]2CC1` [ABIETIC ACID], for which the outcome with Mus musculus [1], with Mus musculus [5], in the data set with Mus musculus [7], with Mus musculus [8], in the data set with Mus musculus [9] and in the data set on Mus musculus [12] was inactive. In addition, the outcome in the data set with Mus musculus [14], with Mus musculus [16], in the data set with Mus musculus [19], in the data set with Mus musculus [20], with Mus musculus [21] and in the data set with Mus musculus [24] was inactive. Moreover, the Activity result in the data set with Mus musculus [2], with Mus musculus [3], in the data set on Mus musculus [6], with Mus musculus [11], in the data set on Mus musculus [13] and with Mus musculus [18] was “Non-toxic” throughout. Moreover, the Activity result in the data set on Mus musculus [22] and in the data set with Mus musculus [23] was “Non-toxic” in each case. Besides, the result in the data set with Mus musculus [4], with Mus musculus [10], in the data set with Mus musculus [15] and with Mus musculus [17] was Active.
